The source of these data is US10118944B2, “Cell penetrating peptides for intracellular delivery of molecules” (AADIGEN, LLC, priority 2012, dated 2018).

Data set [1] has as its system MCF7. The experiment in a line: VEPEP-5 mediated delivery of small hydrophobic molecules, inhibition of proliferation. Format: cell-based. The following applies: Homo sapiens, free drug without carrier. From the text:
(§1) VEPEP-5 peptides (Short-6, Short-7 and Short 11) have been used for the delivery of different small hydrophobic molecules including doxorubicin and porphyrin on different cell lines including primary cell lines and challenging cell lines. VEPEP-5 peptides form stable particles with small aromatic molecules (table 2). Effect of VEPEP-5 mediated delivery of doxorubicin and porphyrin have been investigated on cancer cell viability. […] The impact of carrier peptides to improve cellular uptake of small molecule drugs was estimated by following inhibition of proliferation of cancer cells.

Data set [2] concerns Hela. The description is as above. Format: cell-based. The conditions noted are these: Homo sapiens, free drug without carrier.
Description: as §1

Data set [3] relates to MCF7. The experiment in a line: VEPEP-5 mediated delivery of C4 peptide (targeting cdk2/cyclin A), cell proliferation. It counts as cell-based, Human. The following applies: VEPEP-5 (Short-6, Short-7 and Short 11) mediated delivery. As for the experimental part:
(§2) Adherent HS68 fibroblasts, HeLa, PC3, Jurkat, CEM-SS and U2OS MCF-7 cell lines (from American Type Culture Collection (ATCC)), as well as MEF and PBMC were cultured in Dulbecco's Modified Eagle's Medium supplemented with 2 mM glutamine, 1% antibiotics (streptomycin 10,000 μg/ml, penicillin, 10,000 IU/ml) and 10% (w/v) foetal calf serum (FCS), at 37° C. in a humidified atmosphere containing 5% CO2. Stock solutions of VEPEP-5/peptide particles were prepared by complexing 1 μM peptide with VEPEP-5 peptides at a molar ratio of 1/20 for 30 min at 37° C. Lower concentrations of VEPEP-5-carrier/peptide (from 500 nM to 1 μM) were obtained by serial dilution of the stock complexes in PBS, in order to preserve the same VEPEP-5-carrier/peptide ratio. 150 000 cells seeded in a 35 mm dish the day prior transfection, were grown to 60% confluence and overlaid with 200 μl of preformed complexes, incubated for 3-5 min, then 400 μl of DMEM were added. After 30 min. incubation at 37° C., 1 ml of fresh DMEM containing 16% foetal calf serum (FCS) was added in order to reach a final FCS concentration of 10%, without removing the overlay of VEPEP-5/peptide complexes. Cells were returned to the incubator for 24 hrs. For CDK2 derived peptides cell proliferation was monitored after 24 and 48 hrs. Data reported are an average of 3 or 4 distinct experiments. […]

Data set [4] concerns Hela. Described as above. Format: cell-based, Human. The following applies: VEPEP-5 (Short-6, Short-7 and Short 11) mediated delivery. As for the experimental part: as §2
The test system of data set [5] is Cyclin B1 protein level. The experiment in a line: VEPEP-5 mediated delivery of PNA antisense, Cyclin B1 knockdown. Format: cell-based, Human. The following applies: controls: free PNA; scrambled PNA complexed with Short-6 and Short-11. The source says:
VEPEP-5 (Short-6, Short-7 and Short 11) peptides have been used for the delivery of nucleic acid analog (PNA and morpholino) into different cell lines, including primary cell lines and challenging cell lines. Uptake was monitored by following biological response (Cyclin B1 knockdown). We then have applied Short-6, Short-7 and Short 11 for the delivery of PNA antisense targeting Cyclin B1 as previously described by Morris et al..

Data set [6] in a line: Fluorescence titration, VEPEP-5/SHM binding: doxorubicin. The conditions noted are these: cargo Doxorubicin. Here is the method: (§3) Fluorescence experiments were performed on a PTI spectrofluorimeter at 25° C. in a NaCl 154 mM buffer. Intrinsic Trp-fluorescence of VEPEP-5 was excited at 290 nm and emission spectrum was recorded between 310 and 400 nm, with a spectral band-pass of 2 and 8 nm for excitation and emission, respectively. FITC-fluorescence of labelled-peptide was excited at 492 nm and emission recorded between 500 and 580 nm. For […]/peptide interaction, 0.5 μM of FITC-labelled peptide was titrated by increasing concentrations of VEPEP-5. All measurements were corrected for the dilution and curve fitting were performed by using Grafit software (Erithacus).
(§4) VEPEP-5 peptides also form stable particles with small aromatic molecules including doxorubicin, porphyrin and charges molecules including nucleotide, nucleoside and peptide-analog of nucleic acids or fluorescent dyes (FIG. 1). The dissociation constant for small hydrophobic molecule ranges between 0.05 to 0.1 μM, depending on the nature of the dyes and of the peptides (Table 2).

The test system of data set [7] is HeLa and U2OS cells. The data set is described as follows: Toxicity of VEPEP-5 particles by MTT assay. Format: cell-based, Human. Here is the method:
Cytotoxic response was measured 24 hr later by colorimetric MTT assay (Sigma, Germany), respectively. […] Results correspond to the average of 3 separate experiments.
For orientation: Formazan colour is commonly taken as a measure of viable cells.

For data set [8], the system named is MEF. The experiment in a line: VEPEP-5 mediated delivery of fluorescent labelled peptide (microscopy/FACS). Format: cell-based, Mouse. The conditions noted are these: % of the cells. Here is the method: (§5) Adherent HS68 fibroblasts, HeLa, PC3, Jurkat, CEM-SS and U2OS MCF-7 cell lines (from American Type Culture Collection (ATCC)), as well as MEF and PBMC were cultured in Dulbecco's Modified Eagle's Medium supplemented with 2 mM glutamine, 1% antibiotics (streptomycin 10,000 μg/ml, penicillin, 10,000 IU/ml) and 10% (w/v) foetal calf serum (FCS), at 37° C. in a humidified atmosphere containing 5% CO2. Stock solutions of VEPEP-5/peptide particles were prepared by complexing 1 μM peptide with VEPEP-5 peptides at a molar ratio of 1/20 for 30 min at 37° C. Lower concentrations of VEPEP-5-carrier/peptide (from 500 nM to 1 μM) were obtained by serial dilution of the stock complexes in PBS, in order to preserve the same VEPEP-5-carrier/peptide ratio. 150 000 cells seeded in a 35 mm dish the day prior transfection, were grown to 60% confluence and overlaid with 200 μl of preformed complexes, incubated for 3-5 min, then 400 μl of DMEM were added. After 30 min. incubation at 37° C., 1 ml of fresh DMEM containing 16% foetal calf serum (FCS) was added in order to reach a final FCS concentration of 10%, without removing the overlay of VEPEP-5/peptide complexes. Cells were returned to the incubator for 24 hrs. For CDK2 derived peptides cell proliferation was monitored after 24 and 48 hrs. Data reported are an average of 3 or 4 distinct experiments.
(§6) VEPEP-5 peptides (Short-6, Short-7 and Short 11) have been used for the delivery of different peptides into different cell lines, including primary cell lines, stem cell lines and challenging cell lines. Peptide delivery was monitored using three approaches, fluorescence spectroscopy and monitoring biological responses (anti proliferation)
(§7) 1—Fluorescent labelled peptide was visualized in the different cell lines using fluorescence microscopy or FACS sorting (Table 3). In most of the cell lines, the uptake of Cy-5 labelled peptides is more than 70% of the cells

Data set [9] in a line: Fluorescence titration, VEPEP-5/SHM binding: FAM-guanosine. The following applies: cargo FAM-guanosine. Here is the method: as §3, §4
A short description of data set [10]: Fluorescence titration, VEPEP-5/SHM binding: porphyrin. The following applies: cargo porphyrin. Here is the method: as §3, §4
Data set [11] has as its system CEM-SS. The experiment in a line: VEPEP-5 mediated delivery of fluorescent labelled peptide (microscopy/FACS). The following applies: % of the cells. Format: cell-based, Human. Here is the method: as §5, §6, §7
The test system of data set [12] is MCF7. The description is as above. Format: cell-based, Human. The following applies: MCF7, % of the cells. Here is the method: as §5, §6, §7
Data set [13] deals with U2OS. Described as above. It counts as cell-based, Human. The following applies: % of the cells. As for the experimental part:
as §5, §6, §7

Data set [14] concerns Hela. Described as above. It counts as cell-based, Human. The following applies: % of the cells. Here is the method: as §5, §6, §7
In data set [15] the test system is PBMC. The description is as above. It counts as cell-based, Human. The following applies: % of the cells. As for the experimental part: as §5, §6, §7
The subject of data set [16] is HS-68. The data set is described as above. It counts as cell-based, Human. The following applies: HS-68, % of the cells. Here is the method:
as §5, §6, §7

Data set [17] relates to CEM-SS. The experiment in a line: VEPEP-5 mediated delivery of proteins (fluorescence/FACS). Format: cell-based, Human. The conditions noted are these: % of the cells. As for the experimental part:
as §5
(§8) VEPEP-5 have been used for the delivery of different proteins into different cell lines, including primary cell lines, stem cell lines and challenging cell lines. Protein uptake was monitored using fluorescence spectroscopy and FACS analysis. GFP/RFP or Fluorescent labelled proteins were visualized in the different cell lines using fluorescence microscopy or FACS sorting (Table 5). In most of the cell lines, the uptake of RFP; GFP, Cy-5 labelled proteins is more than 50% of the cells.

Data set [18] concerns Jurkat. The description is as above. The following applies: % of the cells. Format: cell-based, Human. Here is the method: as §5, §8
The test system of data set [19] is MCF7. The data set is described as above. It counts as cell-based, Human. The conditions noted are these: MCF7, % of the cells. Here is the method:
as §5, §8

For data set [20], the system named is U2OS. Described as above. The conditions noted are these: % of the cells. It counts as cell-based, Human. Here is the method:
as §5, §8

The test system of data set [21] is Hela. The description is as above. The conditions noted are these: % of the cells. It counts as cell-based, Human. Here is the method: as §5, §8
Data set [22] concerns HS-68. The data set is described as above. Format: cell-based, Human. The conditions noted are these: HS-68, % of the cells. As for the experimental part: as §5, §8
Data set [23] concerns MEF. Described as above. The conditions noted are these: % of the cells. It counts as cell-based, Mouse. As for the experimental part:
as §5, §8

The IC50 is the point on the concentration scale where inhibition reaches its midpoint. The low end stands for inhibition by little substance, the high end for a need for much substance. Consider `C1=Cc2cc3ccc(cc4nc(cc5ccc(cc1n2)[nH]5)C=C4)[nH]3` [Porphyrin, porphyrin], for which the IC50 in data set [1] was 17 µM; in data set [2], 25 µM.
For “KKQVRMAHLVLT (synthesized peptide C4) [Short C4]”, the “peptide C4 concentration sufficient to block proliferation” value in data set [3] and in data set [4] was 100 nM each time.
Turning to “TGC CAT CAA GCT TAG AGG-^CY5 (antisense TGCCATCAAGCTTAGAGG; all peptide nucleic acid (PNA); further chemistry not fully specified) [free PNA, PNA antisense targeting Cyclin B1, without carrier]”, the “change in Cyclin B1 level” value in [5] is on record as “no change”.
For orientation: Kd means the equilibrium constant for the complex coming apart. For “X1RSWFRLWFR [Short 11, X1 is beta-A or S; N-terminus acetylated, C-terminal cysteamide]”, the “Binding, Doxorubicin” value in data set [6] is reported as “yes”. The “toxicity (MTT)” value was “No toxicity” in data set [7] (levels up to 200 nM) and “mild toxicity” in data set [7] (maximum concentration of 1 μM). Also, the “Efficiency (uptake of fluorescent labelled peptide)” value (“Efficiency” below) in data set [8] came out at 70%; in data set [11] it was 70%; in data set [12], 58%; in data set [13], 55%; in data set [14] it was 69%; in data set [15], 78%. The “Efficiency” value in [16] was determined as 80%. For the same molecule, in [9], the “Binding, FAM-guanosine” value is recorded as “yes”. Further, the “Binding, porphyrin” value in data set [10] is listed as “yes”. This molecule had a Kd in data set [10] of 0.7 µM. Moreover, the “uptake of RFP; GFP, Cy-5 labelled proteins” value (from here on “uptake of RFP; GFP”) in data set [17] is 65%; in data set [18], 78%; in [19] it was 62%; in [20], 71%; in data set [21], 60%; in [22] it was 70%. The “uptake of RFP; GFP” value in data set [23] is 60%.
“X1WFRLWFRLR [Short 7, X1 is beta-A or S; N-terminus acetylated, C-terminal cysteamide]”: the “Binding, Doxorubicin” value in [6] is recorded as “yes”. For the same molecule, the results for the Kd in data set [6] and in data set [10] were 0.07 µM and 0.5 µM, respectively. Besides, the “toxicity (MTT)” value in data set [7] (levels up to 200 nM) is “No toxicity”; in [7] (maximum concentration of 1 μM) it was “mild toxicity”. The “Efficiency” value is 71% in data set [8]; 75% in data set [11]; 75% in data set [12]; 71% in data set [13]; 70% in [14]; 80% in data set [15]. For the same molecule, the “Efficiency” value in data set [16] was 78%. Also, the “Binding, FAM-guanosine” value in [9] is “yes”. Also, in data set [10], the “Binding, porphyrin” value is given as “yes”. Moreover, the “uptake of RFP; GFP” value in data set [17] is reported as 60%; in [18], 70%; in data set [19], 75%; in data set [20], 80%; in [21], 80%; in data set [22], 80%. For the same molecule, the “uptake of RFP; GFP” value in [23] worked out at 65%.
Turning to “X1WWRLWWRLR [Short 6, X1 is beta-A or S; N-terminus acetylated, C-terminal cysteamide]”, in data set [6], the “Binding, Doxorubicin” value is “yes”. Moreover, the “toxicity (MTT)” value in data set [7] (levels up to 200 nM) is reported as “No toxicity”; in data set [7] (maximum concentration of 1 μM), “mild toxicity”. For the same molecule, the “Efficiency” value in data set [8] amounted to 64%; in data set [11], 74%; in data set [12], 59%; in [13], 68%; in data set [14] it was 45%; in [15], 78%. Moreover, the “Efficiency” value in data set [16] is given as 89%. In data set [9], the “Binding, FAM-guanosine” value is on record as “yes”. Also, the dissociation constant (Kd) in [9] was found to be 0.06 µM; in [10], 0.4 µM. In [10], the “Binding, porphyrin” value is reported as “yes”. Also, the “uptake of RFP; GFP” value in [17] worked out at 55%; in data set [18], 60%; in data set [19], 70%; in [20], 64%; in data set [21], 55%; in data set [22] it was 78%. Also, the “uptake of RFP; GFP” value in data set [23] turned out to be 65%.
